We go through 1 substance from patent US20180284095A1, “BIOMARKERS ASSOCIATED WITH LSD1 INHIBITORS AND USES THEREOF” (Oryzon Genomics, S.A., priority 2015, published 2018).

One assay concerns S100A9. Description: Illumina RNA sequencing, hippocampus of SAMP8 mice (Example 4). The class given is in vivo, mouse. How it is done: Illumina dye sequencing begins with the attachment of cDNA molecules to primers on a slide, followed by amplification of that DNA to produce local colonies. The four types (adenine, cytosine, guanine, and thymine) of reversible terminate bases are added, each fluorescently labeled with a different color and attached with a blocking group. The four bases then compete for binding sites on the template cDNA to be sequenced and non-incorporated molecules are washed away. After each synthesis, a laser is used to excite the dyes and a photograph of the incorporated base is taken. A chemical deblocking step is then used in the removal of the 3′ terminal blocking group and the dye in a single step. The process is repeated until the full cDNA molecule is sequenced.
Illumina RNA-Seq technology records the numerical frequency of sequences in a library population. 50 bp single reads with multiples of 30M single reads are guaranteed using Illumina sequencing technology. The RNA-Seq reads are aligned to the reference genome or reference transcriptome using Bowtie generating genome/transcriptome alignments. TopHat identifies the potential exon-exon splice junctions of the initial alignment. Then Cufflinks identifies and quantifies the transcripts from the preprocessed RNA-Seq alignment assembly. After this, Cuffmerge merges the identified transcript pieces to full length transcripts and annotates the transcripts based on the given annotations. Finally, merged transcripts from two or more samples/conditions are compared using Cuffdiff to determine the differential expression levels at transcript and gene level including a measure of significance between samples/conditions.
Differential gene expression. Operating on the RNA-Seq alignments and Cuffinks processing, Cuffdiff tracks the mapped reads and determines the fragment per kilo base per million mapped reads (FPKM) for each transcript in all the samples. Primary transcripts and gene FPKMs are then computed by adding up the FPKMs of each primary transcript group or gene group. […]

For a further assay, the system named is SAMP8 mice. The assay can be described thus: Novel Object Recognition Test (NORT) in SAMP8 mice. The format is in vivo, mouse. From the text:
The Senescence Accelerated Mouse Prone 8 (SAMP8) strain is a non-transgenic model for neurodegeneration reminiscent of Alzheimer's disease (T Takeda, Neurobiol Aging 1999, 20(2):105-10). Memory deficits appear around 5 months of age in SAMP8 mice and can be reliably assessed using the Novel Object Recognition Test (NORT).
Males and females were separated in two different cohorts and all treatments started at 5 months of age. […] Based on the results obtained in the first experiment, doses were adjusted in a second experiment using male mice.
The dose was calculated according to the animal water consumption average par cage and adjusted weekly. The test compound (or vehicle) was available for 5 days followed by a 2 day clearance in a weekly period.
NORT is used to assess animal's behavior when it is exposed to a novel and a familiar object (M Antunes and G Biala, Cogn Process. 2012, 13(2): 93-110). […]
The NORT test was performed after 2 (n=16/group) and repeated at 4 (n=10/group) months of treatment (between […] and 6:30 pm). […] During this second trial, objects A and B were placed in the maze, and the time that the animal explored the new object (tn) and the old object (to) were video-recorded. […]
Statistical analysis was performed using the GraphPad Prism 6.0 software package. NORT data from SAMP8 mice was analyzed by one-way ANOVA with treatment as the main factor. […]

Take “(−) 5-((((trans)-2-(4-(benzyloxy)phenyl)cyclopropyl)amino)methyl)-1,3,4-oxadiazol-2-amine [Compound 1]”: the “Female FPKM S100A9” value with S100A9 (hippocampus pool, SAMP8 females, 0.96 mg/kg/day, 4 months) is reported as 0.61 FPKM. Besides, the “Male FPKM S100A9” value in the assay on S100A9 (hippocampus pool, SAMP8 males, 0.32 mg/kg/day, 4 months) was 1.03 FPKM. In the assay with S100A9 (hippocampus, SAMP8, vs vehicle-treated animals of the same sex), the “S100A9 expression (RNA-seq)” value is given as “down-regulated S100A9 expression”. Besides, the “memory loss as assessed by NORT” value with SAMP8 mice (SAMP8 males and females, after 2 m and 4 m of treatment) was “completely prevents memory loss”. The “memory deficits (NORT), medium- and long-term memory” value in the assay on SAMP8 mice (SAMP8 males, 0.32 and 0.96 mg/kg/day in drinking water, 2 and 4 months) is recorded as “rescued the memory deficits”.
